For assay [1], the target named is T1, recombinant human A2A receptors (Homo sapiens, UniProt P29274).
T1 construct: made in house; host or cells: Sf9 insect cells, viral (baculovirus) infection; membranes
In words: Radioligand binding assay, A2A receptor. The note with it: recombinant human A2A receptors in Sf9 cell membranes; competition binding. As for the experimental part: Cell culture and membrane preparation. Sf9 cells were cultured in Grace's medium supplemented with 10% fetal bovine serum, 2.5 μg/ml amphotericin B and 50 μg/ml gentamycin in an atmosphere of 50% N2/50% O2. Viral infection was performed at a density of 2.5×10^6 cells/mL with a multiplicity of infection of two for each virus used. Infected cells were harvested 3 days post-infection and washed twice in insect PBS (PBS pH 6.3). Cells were then resuspended in lysis buffer (20 mM HEPES pH 7.5, 150 mM NaCl, 3 mM MgCl2, 1 mM β-mercaptoethanol (BME), 5 μg/mL leupeptin, 5 μg/mL pepstatin A, 1 μg/mL aprotinin, and 0.1 mM PMSF) and snap frozen for storage at −80° C. Cells were thawed on ice, brought to 30 mL total volume in lysis buffer, and burst by N2 cavitation (600 psi for 20 minutes). A low-speed centrifugation was performed to remove any unlysed cells (1000×g for 10 minutes), followed by a high-speed centrifugation (17,000×g for 30 minutes). The pellet from the final centrifugation was homogenized in buffer containing 20 mM HEPES pH 8, 100 mM NaCl, 1% glycerol, 2 μg/mL leupeptin, 2 μg/mL pepstatin A, 2 μg/mL Aprotinin, 0.1 mM PMSF, and 10 μM GDP using a small glass homogenizer followed by passage through a 26 gauge needle. Membranes were aliquoted, snap frozen in liquid N2, and stored at −80° C. Membranes from cells stably expressing the human A1 AR(CHO K1 cells) or A3 AR (HEK 293 cells) were prepared as described (Robeva et al., 1996).
Radioligand Binding Assays. Radioligand binding to recombinant human A2A receptors in Sf9 cell membranes was performed using either the radiolabeled agonist, ^125I-APE (Luthin et al., 1995) or the radiolabeled antagonist, ^125I-ZM241385 (^125I-ZM). To detect the high affinity, GTPγS-sensitive state of A1 and A3 AR, we used the agonist, ^125I-ABA (Linden et al., 1985; Linden et al., 1993). Binding experiments were performed in triplicate with 5 μg (A2A) or 25 μg (A1 and A3) membrane protein in a total volume of 0.1 mL HE buffer (20 mM HEPES and 1 mM EDTA) withl U/mL adenosine deaminase and 5 mM MgCl2 with or without 50 μM GTPγS. Membranes were incubated with radioligands at room temperature for three hours (for agonists) or two hours (for antagonists) in Millipore Multiscreen® 96-well GF/C filter plates and assays were terminated by rapid filtration on a cell harvester (Brandel, Gaithersburg, Md.) followed by 4×150 μL washes over 30 seconds with ice cold 10 mM Tris-HCl, pH 7.4, 10 mM MgCl2. Nonspecific binding was measured in the presence of 50 μM NECA. Competition binding assays were performed as described (Robeva et al., 1996) using 0.5-1 nM ^125I-APE, ^125I-ZM241385, or ^125I-ABA. Sometimes it is important to change pipette tips following each serial dilution to prevent transfer on tips of potent hydrophobic compounds. The Ki values for competing compound binding to a single site were derived from IC50 values with correction for radioligand and competing compound depletion as described previously (Linden, 1982). • Linden J (1982) Calculating the Dissociation Constant of an Unlabeled Compound From the Concentration Required to Displace Radiolabel Binding by 50%. J Cycl Nucl Res 8: 163-172. • Linden J, Patel A and Sadek S (1985) [^125I]Aminobenzyladenosine, a New Radioligand With Improved Specific Binding to Adenosine Receptors in Heart. Circ Res 56: 279-284. • Linden J, Taylor H E, Robeva A S, Tucker A L, Stehle J H, Rivkees S A, Fink J S and Reppert S M (1993) Molecular Cloning and Functional Expression of a Sheep A3 Adenosine Receptor with Widespread Tissue Distribution. Mol Pharmacol 44: 524-532. • Luthin D R, Olsson R A, Thompson R D, Sawmiller D R and Linden J (1995) Characterization of Two Affinity States of Adenosine A2A Receptors With a New Radioligand, 2-[2-(4-Amino-3-[^125I]Iodophenyl)Ethylamino] Adenosine. Mol Pharmacol 47: 307-313. • Robeva A S, Woodard R, Luthin D R, Taylor H E and Linden J (1996) Double Tagging Recombinant A1- and A2A-Adenosine Receptors With Hexahistidine and the FLAG Epitope. […]

The next assay has as its system human neutrophils. In words: Neutrophil oxidative activity (luminol enhanced chemiluminescence). Format: cell-based. As to conditions: oxidative activity assay, purified human neutrophils, fMLP-stimulated chemiluminescence, read-out: Functional Activity. From the text: Chemiluminescence Methods: Luminol enhanced chemiluminescence, a measure of neutrophil oxidative activity, is dependent upon both superoxide production and mobilization of the granule enzyme myeloperoxidase. The light is emitted from unstable high-energy oxygen species such as hypochlorous acid and singlet oxygen generated by activated neutrophils.
Purified human neutrophils (2×10^6/ml) suspended in Hanks balanced salt solution containing 0.1% human serum albumin (HA), adenosine deaminase (1 U/mL) and rolipram (100 nM) were incubated (37 C) in a water bath for 15 min with or without rhTNF (10 U/ml). Following incubation 100 µL aliquots of the PMN were transferred to wells (White walled clear bottom 96 well tissue culture plates Costar #3670; 2 wells/condition) containing […] and luminol (final concentration […]) with or without adenosine agonist (final agonist concentrations 0.01-1000 nM). The plate was incubated 5 min (37 C) and then fMLP (50 l in HA; final concentration […]) was added to all wells.
Peak chemiluminescence was determined with a Victor 1420 Multilabel Counter in the chemiluminescence mode using the Wallac Workstation software. Data are presented as peak chemiluminescence as percent of activity in the absence of an adenosine agonist. The EC50 was determined using PRISM software. All compounds were tested with PMNs from three separate donors.
Effect of A2A Agonists on Neutrophil Oxidative Activity: f-met-leu-phe (fMLP), luminol, superoxide dismutase, cytochrome C, fibrinogen, adenosine deaminase, and trypan blue were obtained from Sigma Chemical. Ficoll-hypaque was purchased from ICN (Aurora, Ohio), and Cardinal Scientific (Santa Fe, N. Mex.) and Accurate Chemicals and Scientific (Westerbury, N.Y.). Endotoxin (lipopolysaccharide; E. coli K235) was from List Biologicals (Campbell, Calif.). Hanks balanced salt solution (HBSS), and limulus amebocyte lysate assay kit were from BioWittaker (Walkersville, Md.). Human serum albumin (HSA) was from Cutter Biological (Elkhart, Ind.). Recombinant human tumor necrosis factor-α was supplied by Dianippon Pharmaceutical Co. Ltd. (Osaka, Japan). ZM241385 (4-(2-[7-amino-2-(2-furyl)[1,2,4]triazolo[2,3-a][1,3,5]triazin-5-yl amino]ethyl)phenol) was a gift from Simon Poucher, Zeneca Pharmaceuticals, Cheshire, UK. Stock solutions (1 mM and 10 mM in DMSO) were made and stored at −20° C.
Human neutrophil preparation: Purified neutrophils (98% neutrophils and >95% viable by trypan blue exclusion) containing <1 platelet per 5 neutrophils and <50 pg/ml endotoxin (limulus amebocyte lysate assay) were obtained from normal heparinized (10 U/ml) venous blood by a one step Ficoll-hypaque separation procedure (A. Ferrante et al., J. Immunol. Meth., 36, 109 (1980)). […]

15 molecules from patent publication US8263762B2, “Alkoxy-carbonyl-amino-alkynyl-adenosine compounds and derivatives thereof as A2AR agonists” (Dogwood Pharmaceuticals, Inc., priority 2009, dated 2012) can be followed below.

T1 sequence (P29274 whole entry): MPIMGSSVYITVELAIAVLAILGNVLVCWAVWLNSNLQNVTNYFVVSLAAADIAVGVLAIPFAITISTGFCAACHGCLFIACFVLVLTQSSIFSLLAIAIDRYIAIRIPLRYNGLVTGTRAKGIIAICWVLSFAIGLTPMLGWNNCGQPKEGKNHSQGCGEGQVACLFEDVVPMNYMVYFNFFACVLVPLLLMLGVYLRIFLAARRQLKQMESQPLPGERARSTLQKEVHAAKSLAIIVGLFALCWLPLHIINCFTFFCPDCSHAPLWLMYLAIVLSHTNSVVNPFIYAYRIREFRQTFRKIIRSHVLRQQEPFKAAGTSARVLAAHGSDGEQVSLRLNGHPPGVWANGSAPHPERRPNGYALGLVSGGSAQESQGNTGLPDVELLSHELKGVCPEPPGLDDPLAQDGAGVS

Consider `COC(=O)N(C)CC#Cc1nc(N)c2ncn([C@@H]3O[C@H](C(=O)NC4CC4)C(O)C3O)c2n1` (stereo partly drawn) [Example 1, N-Cyclopropyl 2-{3-[methoxycarbonyl(methyl)amino]propyn-1-yl}adenosine-5′-uronamide], for which the inhibitory constant (Ki) in assay [1] was less than 10 nM. Also, the EC50 in the assay on human neutrophils was less than 10 nM.

`CN(CC#Cc1nc(N)c2ncn([C@@H]3O[C@H](C(=O)NC4CC4)C(O)C3O)c2n1)C(=O)Oc1ccccc1` (stereo partly drawn) [Example 2, N-Cyclopropyl 2-{3-[phenoxycarbonyl(methyl)amino]propyn-1-yl}adenosine-5′-uronamide]: the Ki in assay [1] was less than 10 nM. Also, the EC50 in the assay with human neutrophils was less than 10 nM.

For the molecule `CN(CC#Cc1nc(N)c2ncn([C@@H]3O[C@H](C(=O)NC4CC4)C(O)C3O)c2n1)C(=O)OCCOCc1ccccc1` (stereo partly drawn) [Example 3, N-Cyclopropyl 2-{3-[2-((benzyloxy)ethoxycarbonyl)(methyl)amino]propyn-1-yl}adenosine-5′-uronamide], in assay [1], the Ki is less than 10 nM. Besides, the EC50 in the assay with human neutrophils is less than 10 nM.

Regarding `CN(CC#Cc1nc(N)c2ncn([C@@H]3O[C@H](C(=O)NC4CC4)C(O)C3O)c2n1)C(=O)Oc1ccc(F)cc1` (stereo partly drawn) [Example 4, N-Cyclopropyl 2-{3-[4-fluorophenoxycarbonyl(methyl)amino]propyn-1-yl}adenosine-5′-uronamide], in assay [1], the inhibitory constant (Ki) fell in the range of 11 to 100 nM. Besides, in the assay on human neutrophils, the EC50 is less than 10 nM.

`CCN(CC#Cc1nc(N)c2ncn([C@@H]3O[C@H](C(=O)NC4CC4)C(O)C3O)c2n1)C(=O)OC` (stereo partly drawn) [Example 6, N-Cyclopropyl 2-{3-[4-(ethyl(methoxycarbonyl)amino)]propyn-1-yl}adenosine-5′-uronamide]: the inhibitory constant (Ki) in assay [1] is less than 10 nM. In addition, in the assay with human neutrophils, the EC50 is less than 10 nM.

Turning to `CCCN(CC#Cc1nc(N)c2ncn([C@@H]3O[C@H](C(=O)NC4CC4)C(O)C3O)c2n1)C(=O)OC` (stereo partly drawn) [Example 7, N-Cyclopropyl 2-{3-[4-(methoxycarbonyl(propyl)amino)]propyn-1-yl}adenosine-5′-uronamide], in assay [1], the inhibitory constant (Ki) is less than 10 nM. The EC50 in the assay on human neutrophils is less than 10 nM.

As to `COC(=O)N(CC#Cc1nc(N)c2ncn([C@@H]3O[C@H](C(=O)NC4CC4)C(O)C3O)c2n1)C(C)C` (stereo partly drawn) [Example 8, N-Cyclopropyl 2-{3-[4-(isopropyl(methoxycarbonyl)amino)]propyn-1-yl}adenosine-5′-uronamide], the Ki in assay [1] is less than 10 nM. The EC50 in the assay on human neutrophils was less than 10 nM.

In the case of `COC(=O)N(CC#Cc1nc(N)c2ncn([C@@H]3O[C@H](C(=O)NC4CC4)C(O)C3O)c2n1)CC(C)C` (stereo partly drawn) [Example 9, N-Cyclopropyl 2-{3-[4-(isobutyl(methoxycarbonyl)amino)]propyn-1-yl}adenosine-5′-uronamide], in assay [1], the Ki was less than 10 nM. Further, in the assay on human neutrophils, the EC50 was less than 10 nM.

For the molecule `COC(=O)N(CC#Cc1nc(N)c2ncn([C@@H]3O[C@H](C(=O)NC4CC4)C(O)C3O)c2n1)Cc1ccccc1` (stereo partly drawn) [Example 10, N-Cyclopropyl 2-{3-[4-(benzyl(methoxycarbonyl)amino)]propyn-1-yl}adenosine-5′-uronamide], in assay [1], the Ki lay within 11 to 100 nM. Besides, the EC50 in the assay on human neutrophils is more than 100 nM.

Turning to `COC(=O)N(CC#Cc1nc(N)c2ncn([C@@H]3O[C@H](C(=O)NC4CC4)C(O)C3O)c2n1)C1CC1` (stereo partly drawn) [Example 11, N-Cyclopropyl 2-{3-[4-(cyclopropyl(methoxycarbonyl)amino)]propyn-1-yl}adenosine-5′-uronamide], the Ki in assay [1] was less than 10 nM. The EC50 in the assay on human neutrophils was less than 10 nM.

In the case of `COC(=O)N(CC#Cc1nc(N)c2ncn([C@@H]3O[C@H](C(=O)NC4CC4)C(O)C3O)c2n1)CC1CC1` (stereo partly drawn) [Example 12, N-Cyclopropyl 2-{3-[4-(cyclopropylmethyl(methoxycarbonyl)amino)]propyn-1-yl}adenosine-5′-uronamide], in assay [1], the Ki is less than 10 nM. Besides, the EC50 in the assay on human neutrophils is less than 10 nM.

As for `COC(=O)N(CC#Cc1nc(N)c2ncn([C@@H]3O[C@H](C(=O)NC4CC4)C(O)C3O)c2n1)C1CCC1` (stereo partly drawn) [Example 13, N-Cyclopropyl 2-{3-[4-(cyclobutyl(methoxycarbonyl)amino)]propyn-1-yl}adenosine-5′-uronamide], in assay [1], the Ki lay in the range of 11 to 100 nM. Also, the EC50 in the assay on human neutrophils is less than 10 nM.

As to `COC(=O)N(CC#Cc1nc(N)c2ncn([C@@H]3O[C@H](C(=O)NC4CC4)C(O)C3O)c2n1)C1CCCC1` (stereo partly drawn) [Example 14, N-Cyclopropyl 2-{3-[4-(cyclopentyl(methoxycarbonyl)amino)]propyn-1-yl}adenosine-5′-uronamide], in assay [1], the Ki is less than 10 nM. Also, the EC50 with human neutrophils is less than 10 nM.

`COCCN(CC#Cc1nc(N)c2ncn([C@@H]3O[C@H](C(=O)NC4CC4)C(O)C3O)c2n1)C(=O)OC` (stereo partly drawn) [Example 15, N-Cyclopropyl 2-{3-[4-(methoxycarbonyl(2-methoxyethyl)amino)]propyn-1-yl}adenosine-5′-uronamide]: in assay [1], the Ki is less than 10 nM. The EC50 with human neutrophils was less than 10 nM.

Consider `COCCCN(CC#Cc1nc(N)c2ncn([C@@H]3O[C@H](C(=O)NC4CC4)C(O)C3O)c2n1)C(=O)OC` (stereo partly drawn) [Example 16, N-Cyclopropyl 2-{3-[4-(methoxycarbonyl(3-methoxypropyl)amino)]propyn-1-yl}adenosine-5′-uronamide], for which the Ki in assay [1] was 11 to 100 nM. The EC50 with human neutrophils was less than 10 nM.

Broadly, the Ki is the equilibrium dissociation constant of an inhibitor or competing ligand from its target.
